Laboratory results: patent publication US8673950B2, “Dihydrooxazol-2-amine derivatives” (Hoffmann-LaRoche Inc., priority 2010, dated 2014)
Structures can show the parent of a compound that is named as a salt.

Legend:
[1] = molecular target: mouse TAAR1 (Mus musculus (Mouse), UniProt Q923Y8); assay: Radioligand binding assay on mouse TAAR1; conditions: mouse TAAR1, membranes of stably transfected HEK-293 cells; first value of cell mouse/rat
[2] = molecular target: rat TAAR1 (Rattus norvegicus (Rat), UniProt Q923Y9); assay: Radioligand binding assay on rat TAAR1; conditions: rat TAAR1, membranes of stably transfected HEK-293 cells; second value of cell mouse/rat
Method in brief: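 Membranes from HEK293 cells stably expressing rat TAAR1, in 20 mM HEPES-NaOH pH 7.4 with 0.1 mM EDTA. Displacement of ^3[H]-(S)-4-[(ethyl-phenyl-amino)-methyl]-4,5-dihydro-oxazol-2-ylamine, nonspecific binding with 10 μM unlabeled ligand; compounds 10 pM to 10 μM in duplicate, 1 hr at 4° C. Filtration, then scintillation counting.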

Chain of rat TAAR1 (Q923Y9 whole entry): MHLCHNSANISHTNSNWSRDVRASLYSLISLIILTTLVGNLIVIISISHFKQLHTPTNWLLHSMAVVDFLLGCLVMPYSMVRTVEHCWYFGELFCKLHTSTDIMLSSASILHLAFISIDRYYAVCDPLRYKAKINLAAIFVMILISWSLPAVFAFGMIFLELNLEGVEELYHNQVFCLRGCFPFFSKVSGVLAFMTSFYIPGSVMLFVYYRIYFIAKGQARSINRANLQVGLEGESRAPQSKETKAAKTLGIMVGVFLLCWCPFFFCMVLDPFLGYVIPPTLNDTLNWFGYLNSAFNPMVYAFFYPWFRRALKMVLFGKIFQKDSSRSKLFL
Chain of mouse TAAR1 (Q923Y8 whole entry): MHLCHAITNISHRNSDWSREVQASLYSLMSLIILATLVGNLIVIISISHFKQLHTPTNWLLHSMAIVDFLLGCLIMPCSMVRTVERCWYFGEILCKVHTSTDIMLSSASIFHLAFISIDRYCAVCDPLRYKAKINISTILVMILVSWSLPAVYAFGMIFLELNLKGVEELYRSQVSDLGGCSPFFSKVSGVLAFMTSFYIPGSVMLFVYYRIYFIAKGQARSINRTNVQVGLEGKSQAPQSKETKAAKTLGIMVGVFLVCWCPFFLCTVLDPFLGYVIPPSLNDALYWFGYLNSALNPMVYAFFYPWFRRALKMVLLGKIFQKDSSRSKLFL

SMILES | Ki [1] | Ki [2]
NC1=N[C@@H](CCc2ccc(NC(c3ccc(Cl)cn3)C(F)(F)F)cc2)CO1 (stereo partly drawn) [Example 68, (4S)-4-(4-(1-(5-Chloropyridin-2-yl)-2,2,2-trifluoroethylamino)phenethyl)-4,5-dihydrooxazol-2-amine] | 0.0651 µM | 0.0265 µM
NC1=N[C@@H](CCc2ccc(Nc3ccncn3)cc2)CO1 [Example 35, (S)-4-(4-(Pyrimidin-4-ylamino)phenethyl)-4,5-dihydrooxazol-2-amine hydrochloride] | 0.0551 µM | 0.0023 µM
NC1=N[C@@H](CCc2ccc(NC(c3ccc(Cl)cc3)C(F)(F)F)cc2)CO1 (stereo partly drawn) [Example 63, (4S)-4-(4-(1-(4-Chlorophenyl)-2,2,2-trifluoroethylamino)phenethyl)-4,5-dihydrooxazol-2-amine] | 0.0084 µM | 0.0022 µM
NC1=N[C@@H](CCc2ccc(Nc3ccc(Cl)c(Cl)c3)cc2)CO1 [Example 19, (S)-4-(4-(3,4-Dichlorophenylamino)phenethyl)-4,5-dihydrooxazol-2-amine] | 0.0002 µM | 0.0001 µM
NC1=N[C@@H](CCc2ccc(Nc3cncc(Cl)n3)cc2)CO1 [Example 27, {4-[2-((S)-2-Amino-4,5-dihydro-oxazol-4-yl)-ethyl]-phenyl}-(6-chloro-pyrazin-2-yl)-amine] | 0.0182 µM | 0.004 µM
NC1=N[C@@H](CCc2ccc(Nc3ncc(Cl)cn3)cc2)CO1 [Example 18, {4-[2-((S)-2-Amino-4,5-dihydro-oxazol-4-yl)-ethyl]-phenyl}-(5-chloro-pyrimidin-2-yl)-amine] | 0.0012 µM | 0.0002 µM
Cc1cc(Nc2ccc(CC[C@H]3COC(N)=N3)cc2)ccc1OC(F)(F)F [Example 10, (S)-4-(4-(3-Methyl-4-(trifluoromethoxy)phenylamino)phenethyl)-4,5-dihydrooxazol-2-amine] | 0.0001 µM | 0.0001 µM
COc1nc(Cl)cc(Nc2ccc(CC[C@H]3COC(N)=N3)cc2)n1 [Example 44, {4-[2-((S)-2-Amino-4,5-dihydro-oxazol-4-yl)-ethyl]-phenyl}-(6-chloro-2-methoxy-pyrimidin-4-yl)-amine] | 0.001 µM | 0.0011 µM
CSc1ccnc(Nc2ccc(CC[C@H]3COC(N)=N3)cc2)n1 [Example 45, {4-[2-((S)-2-Amino-4,5-dihydro-oxazol-4-yl)-ethyl]-phenyl}-(4-methylsulfanyl-pyrimidin-2-yl)-amine] | 0.0077 µM | 0.0013 µM
